# Reference: ChEMBL document CHEMBL1130706, “Synthesis and structure-activity relationships of adenosine analogs as inhibitors of trypanosomal glyceraldehyde-3-phosphate dehydrogenase. Modifications at positions 5' and 8” (Bioorg Med Chem Lett, 1998)
# Test system: Leishmania mexicana
# Test: Inhibition of Leishmania mexicana GAPDH(glyceraldehyde-3-phosphate dehydrogenase)
# Design: concentration or dose not given beside the values
# Conditions: concentration not given here
# Chain of Glyceraldehyde-3-phosphate dehydrogenase (Homo sapiens), P04406 (P04406 whole entry): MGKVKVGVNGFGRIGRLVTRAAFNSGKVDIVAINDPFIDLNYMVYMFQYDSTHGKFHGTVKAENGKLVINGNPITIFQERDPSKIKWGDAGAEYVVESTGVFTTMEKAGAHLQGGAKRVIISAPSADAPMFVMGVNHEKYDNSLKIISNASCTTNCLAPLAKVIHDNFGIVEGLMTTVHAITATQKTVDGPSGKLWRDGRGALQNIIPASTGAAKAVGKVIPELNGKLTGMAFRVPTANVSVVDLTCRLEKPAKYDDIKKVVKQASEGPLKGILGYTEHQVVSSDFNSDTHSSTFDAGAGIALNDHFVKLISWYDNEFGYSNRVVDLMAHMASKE
row,Molecule,inhibition
1,O=C(NC[C@H]1OC(n2cnc3c(NCc4ccccc4)ncnc32)[C@H](O)[C@@H]1O)c1cc(O)cc(O)c1 (some centres undefined),100%
2,Nc1ncnc2c1ncn2[C@@H]1O[C@H](COC(=O)c2ccccc2)[C@@H](O)[C@H]1O,67%
3,Nc1ncnc2c1ncn2C1O[C@H](COC(=O)c2ccc3ccccc3c2)[C@@H](O)[C@H]1O (some centres undefined),100%
4,Nc1ncnc2c1ncn2C1O[C@H](COC(=O)CCC(=O)O)[C@@H](O)[C@H]1O (some centres undefined),100%
5,OC[C@H]1OC(n2c(-c3cccs3)nc3c(NCc4ccccc4)ncnc32)[C@H](O)[C@@H]1O (some centres undefined),100%
6,O=C(O)CCCC(=O)NC[C@H]1OC(n2cnc3c(NCc4ccccc4)ncnc32)[C@H](O)[C@@H]1O (some centres undefined),79%
7,Cc1ccccc1CNc1ncnc2c1nc(-c1cccs1)n2C1O[C@H](CO)[C@@H](O)[C@H]1O (some centres undefined),100%
8,O=C(Cc1ccccc1)NC[C@H]1OC(n2cnc3c(NCc4ccccc4)ncnc32)[C@H](O)[C@@H]1O (some centres undefined),77%
9,NC(=O)CCC(=O)NC[C@H]1OC(n2cnc3c(NCc4ccccc4)ncnc32)[C@H](O)[C@@H]1O (some centres undefined),74%
10,COc1cccc(C(=O)N[C@@H]2[C@H](O)[C@@H](COC(=O)c3ccccc3C(=O)O)O[C@H]2n2cnc3c(NCc4ccccc4)ncnc32)c1,100%
11,O=C(CC1CCCCC1)NC[C@H]1OC(n2cnc3c(NCc4ccccc4)ncnc32)[C@H](O)[C@@H]1O (some centres undefined),77%

# The remaining lines, values ahead:
row,inhibition,Molecule
1,100%,Nc1ncnc2c1nc(N1CCCC1)n2C1O[C@H](CO)[C@@H](O)[C@H]1O (some centres undefined)
2,75%,CN(C)c1nc2c(N)ncnc2n1C1O[C@H](CO)[C@@H](O)[C@H]1O (some centres undefined)
3,100%,Nc1ncnc2c1nc(N1CCCCC1)n2[C@@H]1O[C@H](CO)[C@@H](O)[C@H]1O
4,84%,CC(C)=CCNc1ncnc2c1ncn2[C@@H]1O[C@H](CO)[C@@H](O)[C@H]1O
5,80%,Nc1ncnc2c1nc(NCCO)n2C1O[C@H](CO)[C@@H](O)[C@H]1O (some centres undefined)
6,100%,Nc1ncnc2c1nc(NCc1ccccc1)n2[C@@H]1O[C@H](CO)[C@@H](O)[C@H]1O

# Test system: Leishmania mexicana
# Conditions: not given
row,Km,Molecule
1,400 µM,CC(C)=CCNc1ncnc2c1nc(-c1cccs1)n2C1O[C@H](CO)[C@@H](O)[C@H]1O (some centres undefined)

# Test system: CC(C)=CCNc1ncnc2c1nc(-c1cccs1)n2C1O[C@H](CO)[C@@H](O)[C@H]1O
# Conditions: not given
row,Molecule,Km
1,"Glyceraldehyde-3-phosphate dehydrogenase (Homo sapiens), P04406",40 µM
